Data: article PMC7238232, “Acamprosate Is a Substrate of the Human Organic Anion Transporter (OAT) 1 without OAT3 Inhibitory Properties: Implications for Renal Acamprosate Secretion and Drug–Drug Interactions” (Pharmaceutics, 2020)
Like-named read-outs stand apart in the source and are kept apart here. Marks after values point to notes of the source that are not given here.

Legend:
[1] = biological target: T1, OAT1 (Homo sapiens, UniProt Q4U2R8); test: Drug-drug interaction (DDI) index calculation, OAT1; conditions: for DDI Index, PAH: acamprosate
T1 sequence (Q4U2R8 1-563): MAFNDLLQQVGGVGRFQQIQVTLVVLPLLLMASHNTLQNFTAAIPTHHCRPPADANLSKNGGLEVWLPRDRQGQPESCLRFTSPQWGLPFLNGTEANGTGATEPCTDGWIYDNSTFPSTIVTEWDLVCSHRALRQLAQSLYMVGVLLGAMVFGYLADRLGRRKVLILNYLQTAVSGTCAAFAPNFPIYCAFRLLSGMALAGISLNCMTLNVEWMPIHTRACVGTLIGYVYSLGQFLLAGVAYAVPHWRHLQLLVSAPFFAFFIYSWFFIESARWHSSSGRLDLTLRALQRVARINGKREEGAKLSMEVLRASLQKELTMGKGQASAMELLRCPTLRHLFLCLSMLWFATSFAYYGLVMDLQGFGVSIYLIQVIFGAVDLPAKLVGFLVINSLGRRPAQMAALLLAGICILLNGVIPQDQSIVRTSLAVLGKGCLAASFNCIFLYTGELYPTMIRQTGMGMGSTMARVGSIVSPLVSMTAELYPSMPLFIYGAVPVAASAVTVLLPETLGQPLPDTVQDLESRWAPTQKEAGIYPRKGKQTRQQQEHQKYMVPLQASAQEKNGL
From the text: (§1) Input values for Cmax,u or C0,u calculated from clinical studies are listed in Appendix B, Table A1.

[2] = biological target: T2, OAT3 (Homo sapiens, UniProt Q8TCC7); test: Drug-drug interaction (DDI) index calculation, OAT3; conditions: oral and intravenous administration of inhibitor
T2 sequence (Q8TCC7 1-542): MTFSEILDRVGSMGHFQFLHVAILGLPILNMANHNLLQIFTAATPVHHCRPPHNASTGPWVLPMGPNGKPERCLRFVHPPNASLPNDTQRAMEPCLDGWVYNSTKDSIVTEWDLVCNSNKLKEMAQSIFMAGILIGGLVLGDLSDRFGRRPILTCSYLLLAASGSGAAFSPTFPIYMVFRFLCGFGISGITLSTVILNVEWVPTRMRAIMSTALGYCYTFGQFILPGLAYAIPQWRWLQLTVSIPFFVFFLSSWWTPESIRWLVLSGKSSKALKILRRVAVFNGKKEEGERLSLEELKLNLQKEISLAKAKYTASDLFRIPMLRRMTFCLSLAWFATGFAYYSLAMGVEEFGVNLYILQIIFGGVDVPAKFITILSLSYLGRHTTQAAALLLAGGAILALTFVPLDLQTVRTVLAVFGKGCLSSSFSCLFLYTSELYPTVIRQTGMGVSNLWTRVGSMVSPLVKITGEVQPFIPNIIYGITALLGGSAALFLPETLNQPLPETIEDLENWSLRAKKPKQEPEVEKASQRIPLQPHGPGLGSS
From the text: as §1

[3] = Physicochemical properties; conditions: assay pH 7.4
[4] = cited from earlier work
[5] = rats, cited from earlier work
[6] = test system: PAT1; conditions: Caco-2 cells, preliminary data; cited from earlier work
[7] = test system: EAAT1; conditions: Caco-2 cells, preliminary data; cited from earlier work
[8] = test system: ASBT; conditions: Caco-2 cells, preliminary data; cited from earlier work
[9] = test system: HEK293-Flp-In mock cells; test: Control uptake studies in HEK293-Flp-In mock cells
Procedure: All uptake experiments were performed on 24- or 96-well plates. Before the experiment initiation, the cells were incubated with either 500 or 200 µL∙well^−1 prewarmed buffer for 10 min at 37 °C in a microplate incubator (VWR International AB, Stockholm, Sweden), without shaking. […] The experiment was stopped by adding 200 µL∙well^−1 of ice-cold buffer and subsequent rinse three times with the same amount of buffer. […] A total of 50 µL of cell lysate from each well was transferred to 96-well Luma plates bottom coated with dry scintillant. Then, 2∙20 µL of each donor and three 50 µL blank samples were applied on the same plate. The dry plates were covered with transparent seals and analyzed using a TopCount NXT Microplate Scintillation and Luminescence Counter (Perkin Elmer, Waltham, MA, USA). The remaining 20 µL cell lysate was neutralized with 20 µL 1M HCl∙well^−1, samples were mixed thoroughly and the total protein content in all the wells was measured using a BCA protein assay kit, microplate method, and a Tecan Safire II fluorometer (Tecan Austria GmbH, Grödig, Austria). […] The total protein content was measured by using a BCA protein assay kit and a FLUOStar Omega fluorescence microplate reader (BMG Labtech, Ortenberg, Germany). The protein assay for the OAT3 and mock cell lines was performed in four independent wells of each cell line, seeded and treated in the same manner as the cells used in the uptake assay. For all the OAT1, OAT3, and mock isotope uptake studies, the radiolabelled tracer accumulation (pmol) in each well was calculated by first determining the activity of the isotope (DPM∙pmol^−1) from the radioactivity (DPM) of the donor sample divided by the theoretical isotope concentration (pmol), then dividing the total radioactivity in the well (DPM) to the specific activity of the isotope (DPM∙pmol^−1).

CC(=O)NCCCS(=O)(=O)O [acamprosate, acetylhomotaurinate]
DDI Index, PAH ([1]; IV bolus, 333 mg): 0.12–0.53 *
DDI Index, PAH ([1]; IV bolus, 666 mg): 0.17–0.75 *
DDI Index, PAH ([1]; IV bolus, 710 mg): 0.19–0.80 *
DDI Index, PAH ([1]; IV bolus, 1420 mg): 0.40–1.69 *
DDI Index, PAH ([1]; IV bolus, 2130 mg): 0.62–2.68 *
DDI Index, PAH ([1]; oral solution, 333 mg): 0.00–0.01
DDI Index, PAH ([1]; oral solution, 666 mg): 0.00–0.01
DDI Index, PAH ([1]; oral solution, 1332 mg): 0.00–0.02
DDI Index, PAH ([1]; oral solution, 2664 mg): 0.01–0.03
DDI Index, PAH ([1]; oral tablet, 666 mg): 0.00–0.00
DDI Index, PAH ([1]; oral tablet, 1332 mg): 0.001–0.01
DDI index, substrate PAH ([1]; oral administration of inhibitor, range over doses): 0.001–0.008
DDI index, substrate E3S [2]: <<0.02 ^a, b
ionized at the assay pH [3]: > 99%
Cmax ([4]; acamprosate, IV bolus, 333 mg): 153 ± 38 µM
Cmax ([4]; acamprosate, IV bolus, 666 mg): 214 ± 10 µM
Cmax ([4]; acamprosate, IV bolus, 710 mg): 230 ± 64 µM
Cmax ([4]; acamprosate, IV bolus, 1420 mg): 486 ± 106 µM
Cmax ([4]; acamprosate, IV bolus, 2130 mg): 768 ± 149 µM
fu, fraction unbound in plasma ([4]; acamprosate, all doses and routes of Table A1): 1 [5]
Cmax ([4]; acamprosate, oral solution, 333 mg): 1.8 ± 0.8 µM
Cmax ([4]; acamprosate, oral solution, 666 mg): 4.3 ± 1.4 µM
Cmax ([4]; acamprosate, oral solution, 1332 mg): 5 ± 1.7 µM
Cmax ([4]; acamprosate, oral solution, 2664 mg): 8.6 ± 4.1 µM
Cmax ([4]; acamprosate, oral tablet, 666 mg): 1.4 ± 1.1 µM
Cmax ([4]; acamprosate, oral tablet, 1332 mg): 1.5 ± 0.1 µM
plasma levels ([4]; administered orally, humans): 1 to 9 µM
metabolism in humans [4]: not metabolized
share of the eliminated dose accounted for by renal clearance (CLR) [4]: > 95%
renal clearance (CLR) of unbound acamprosate ([4]; healthy adults): 13.4 to 23.4 L/h
fu (plasma protein binding) ([4]; humans): 1
initial unbound plasma concentration (C0,u) ([4]; intravenous (bolus), doses of 333–2130 mg): 154 to 768 µM
unbound steady-state plasma concentration (Cmax,u) ([4]; oral, doses of 333–2130 mg): 2 to 5 µM
CLR, % of the initial CLR ([5]; 9.3 mg/kg acamprosate i.v. with 33.3 mg/kg probenecid): 59%
CLR, % of the initial CLR ([5]; 9.3 mg/kg acamprosate i.v. with 66.6 mg/kg probenecid): 45%
unbound acamprosate CLR with probenecid, compared to control [5]: 0.45 fold
increase in acamprosate AUC0∞ caused by probenecid ([5]; compared to control): 2.2 fold
renal clearance (CLR) ([5]; intravenous 9.3 mg/kg acamprosate, without probenecid): 0.35 L/h
inhibition of substrate transport via PAT1 [6]: did not inhibit
inhibition of substrate transport via EAAT1 [7]: did not inhibit
inhibition of substrate transport via ASBT [8]: did not inhibit
effect on uptake of [3H]-E3S in mock cells ([9]; 0.02 µM [3H]-E3S, 200 µM E3S, 300 µM or 0.2–1022 µM probenecid, 10,000 µM acamprosate, Lab. 2): did not affect
effect on uptake of [14C]-PAH in mock cells ([9]; 9.5 µM [14C]-PAH, 200 µM PAH, 300 µM or 0.02–1022 µM probenecid, acamprosate, Lab. 1): did not inhibit
saturability of dose-dependent substrate uptake in mock cells ([9]; same substrate concentrations as in transfected cells, acamprosate 0.33–3300 µM): not saturable
